According to ChEMBL document CHEMBL3351341, “Discovery of a potent and selective EGFR inhibitor (AZD9291) of both sensitizing and T790M resistance mutations that spares the wild type form of the receptor” (J Med Chem, 2014):
pIC50: −log10 of the molar value. In brackets after ≈: the same amount, converted by molar mass.

Columns and labels:
A-431 [1] = assay: Antitumor activity against human A431 cells xenografted in SCID mouse assessed as tumor growth inhibition at […], po qd for 7 days relative to control; type: functional
NCI-H1975 [2] = assay: Antitumor activity against human NCI-H1975 cells harboring EGFR L858R/[…] double mutant xenografted in SCID mouse assessed as tumor growth inhibition at 20 mg/kg/day, po qd for 7 days relative to control; type: functional; details: NCI-H1975, 168 h, read-out: TGI
NCI-H1975 [3] = assay: Antitumor activity against human NCI-H1975 cells harboring EGFR L858R/[…] double mutant xenografted in SCID mouse assessed as tumor growth inhibition at 5 mg/kg/day, po qd for 7 days relative to control; type: functional
A-431 [4] = assay: Antitumor activity against human A431 cells xenografted in SCID mouse assessed as tumor growth inhibition at 5 mg/kg/day, po qd for 7 days relative to control; type: functional
A-431 [5] = assay: Antitumor activity against human A431 cells xenografted in SCID mouse assessed as tumor growth inhibition at 10 mg/kg/day, po qd for 7 days relative to control; type: functional
NCI-H1975 [6] = assay: Antitumor activity against human NCI-H1975 cells harboring EGFR L858R/[…] double mutant xenografted in SCID mouse assessed as tumor growth inhibition at 10 mg/kg/day, po qd for 7 days relative to control; type: functional
NCI-H1975 [7] = assay: Antitumor activity against human NCI-H1975 cells harboring EGFR L858R/[…] double mutant xenografted in SCID mouse assessed as tumor growth inhibition at […], po qd for 7 days relative to control; type: functional
A-431 [8] = assay: Antitumor activity against human A431 cells xenografted in SCID mouse assessed as tumor growth inhibition at 20 mg/kg/day, po qd for 7 days relative to control; type: functional; details: A-431, 168 h, read-out: TGI
[9] = target: Voltage-gated inwardly rectifying potassium channel KCNH2 (Homo sapiens, UniProt Q12809); assay: Inhibition of human ERG
Voltage-gated inwardly rectifying potassium channel KCNH2, sequence (Q12809 whole entry): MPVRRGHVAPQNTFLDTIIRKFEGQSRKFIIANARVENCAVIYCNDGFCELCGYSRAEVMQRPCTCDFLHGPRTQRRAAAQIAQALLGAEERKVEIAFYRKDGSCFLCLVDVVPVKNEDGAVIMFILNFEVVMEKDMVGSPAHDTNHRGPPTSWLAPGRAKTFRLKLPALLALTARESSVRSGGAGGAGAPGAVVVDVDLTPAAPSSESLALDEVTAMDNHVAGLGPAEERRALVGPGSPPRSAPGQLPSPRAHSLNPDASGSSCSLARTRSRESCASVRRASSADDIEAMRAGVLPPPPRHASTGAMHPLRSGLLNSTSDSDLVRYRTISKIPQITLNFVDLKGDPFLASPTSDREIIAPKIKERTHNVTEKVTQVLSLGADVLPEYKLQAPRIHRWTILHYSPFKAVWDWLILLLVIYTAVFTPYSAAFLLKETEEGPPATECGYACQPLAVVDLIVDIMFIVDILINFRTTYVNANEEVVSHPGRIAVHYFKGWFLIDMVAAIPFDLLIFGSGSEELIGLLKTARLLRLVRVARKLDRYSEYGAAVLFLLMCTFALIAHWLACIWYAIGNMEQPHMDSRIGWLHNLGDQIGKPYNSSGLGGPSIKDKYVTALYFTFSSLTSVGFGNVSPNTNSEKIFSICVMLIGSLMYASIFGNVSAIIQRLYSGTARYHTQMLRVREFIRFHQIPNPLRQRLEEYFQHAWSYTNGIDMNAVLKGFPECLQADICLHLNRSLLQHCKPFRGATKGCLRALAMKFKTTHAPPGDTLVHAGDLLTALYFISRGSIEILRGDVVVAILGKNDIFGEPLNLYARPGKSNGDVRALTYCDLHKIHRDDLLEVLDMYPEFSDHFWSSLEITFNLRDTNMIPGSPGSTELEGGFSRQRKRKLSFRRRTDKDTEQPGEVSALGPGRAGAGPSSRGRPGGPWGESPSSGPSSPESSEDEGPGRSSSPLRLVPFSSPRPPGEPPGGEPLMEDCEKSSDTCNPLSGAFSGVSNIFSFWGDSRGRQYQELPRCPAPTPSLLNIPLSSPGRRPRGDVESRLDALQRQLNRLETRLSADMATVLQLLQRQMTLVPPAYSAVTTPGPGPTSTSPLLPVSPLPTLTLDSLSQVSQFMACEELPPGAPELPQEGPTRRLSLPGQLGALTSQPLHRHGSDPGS

Plasma [10] = assay: Drug metabolism in mouse plasma treated with N-[2-(2-Dimethylaminoethylmethylamino)-4-methoxy-5-[[4-(1-methylindol-3-yl)pyrimidin-2-yl]amino]phenyl]prop-2-enamide; type: ADME, cell-free
[11] = target: Insulin-like growth factor 1 receptor (Homo sapiens, UniProt P08069); assay: Inhibition of IGF1R (unknown origin)
Insulin-like growth factor 1 receptor, sequence (P08069 31-736 limits assumed): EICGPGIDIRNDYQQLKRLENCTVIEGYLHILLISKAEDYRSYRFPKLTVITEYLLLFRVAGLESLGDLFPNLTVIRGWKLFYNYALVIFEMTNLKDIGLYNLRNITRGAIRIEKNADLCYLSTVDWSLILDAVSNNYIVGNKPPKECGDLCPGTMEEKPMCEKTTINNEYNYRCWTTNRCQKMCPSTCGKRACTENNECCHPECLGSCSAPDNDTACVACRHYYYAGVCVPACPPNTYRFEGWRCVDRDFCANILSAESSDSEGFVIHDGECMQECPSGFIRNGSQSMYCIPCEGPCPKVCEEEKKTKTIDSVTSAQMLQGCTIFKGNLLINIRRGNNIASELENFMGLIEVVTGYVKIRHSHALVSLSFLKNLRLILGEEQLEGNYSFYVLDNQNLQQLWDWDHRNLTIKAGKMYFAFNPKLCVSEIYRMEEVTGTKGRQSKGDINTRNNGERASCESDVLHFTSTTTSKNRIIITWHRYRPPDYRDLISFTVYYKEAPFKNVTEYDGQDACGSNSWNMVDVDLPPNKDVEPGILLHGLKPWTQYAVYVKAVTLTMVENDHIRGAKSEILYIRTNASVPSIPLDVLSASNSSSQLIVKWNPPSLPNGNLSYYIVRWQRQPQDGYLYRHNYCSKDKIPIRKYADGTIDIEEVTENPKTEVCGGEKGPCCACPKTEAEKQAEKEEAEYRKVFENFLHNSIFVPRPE
Insulin-like growth factor 1 receptor, sequence (P08069 741-1367 limits assumed): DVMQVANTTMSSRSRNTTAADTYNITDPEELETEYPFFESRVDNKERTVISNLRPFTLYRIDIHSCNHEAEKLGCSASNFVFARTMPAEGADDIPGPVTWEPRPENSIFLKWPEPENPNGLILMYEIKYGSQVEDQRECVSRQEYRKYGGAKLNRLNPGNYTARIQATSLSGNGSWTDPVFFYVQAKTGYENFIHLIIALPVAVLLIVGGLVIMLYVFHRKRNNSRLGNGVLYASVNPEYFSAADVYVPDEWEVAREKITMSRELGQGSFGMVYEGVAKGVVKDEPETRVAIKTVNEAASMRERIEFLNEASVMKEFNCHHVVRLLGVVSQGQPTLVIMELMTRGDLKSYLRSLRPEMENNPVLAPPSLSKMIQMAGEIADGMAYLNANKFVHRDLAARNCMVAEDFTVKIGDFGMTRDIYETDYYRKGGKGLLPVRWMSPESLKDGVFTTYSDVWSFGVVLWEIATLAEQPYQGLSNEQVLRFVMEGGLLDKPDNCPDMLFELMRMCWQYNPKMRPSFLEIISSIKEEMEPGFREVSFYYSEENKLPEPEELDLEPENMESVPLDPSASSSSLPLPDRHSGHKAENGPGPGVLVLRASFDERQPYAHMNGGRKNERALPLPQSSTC

[12] = Cytotoxicity against human Calu3 cells assessed as growth inhibition after 72 hrs by SYTOX green nucleic acid staining-based fluorescence assay; type: functional, Calu-3
[13] = Cytotoxicity against human PC9 cells harboring EGFR exon 19 deletion activating mutant assessed as growth inhibition after 72 hrs by SYTOX green nucleic acid staining-based fluorescence assay; type: functional, PC-9
Plasma [14] = assay: Drug metabolism in rat plasma treated with N-[2-(2-Dimethylaminoethylmethylamino)-4-methoxy-5-[[4-(1-methylindol-3-yl)pyrimidin-2-yl]amino]phenyl]prop-2-enamide; type: ADME, cell-free
[15] = Fraction unbound in Han Wistar rat plasma; type: ADME, cell-free
[16] = Intrinsic clearance in rat hepatocytes measured per 10^6 cells; type: ADME, cell-based, Hepatocyte; details: read-out: CLH
[17] = Lipophilicity, log D of the compound at pH 7.4; type: physicochemical; details: buffer
[18] = Unbound fraction in nude mouse plasma; type: ADME, cell-free
[19] = Thermodynamic solubility of the compound at pH 7.4; type: physicochemical; details: buffer, read-out: Therm_solubility
[20] = Intrinsic clearance in human hepatocytes measured per 10^6 cells; type: ADME, cell-based, Hepatocyte; details: read-out: CLH
NCI-H1975 [21] = assay: Cytotoxicity against human NCI-H1975 cells harboring EGFR L858R/[…] double mutant assessed as growth inhibition after 72 hrs by SYTOX green nucleic acid staining-based fluorescence assay; type: functional
[22] = (§1) Unbound fraction in human plasma; type: ADME, cell-free
Plasma [23] = assay: Drug metabolism in rat plasma assessed as dealkylation of compound; type: ADME, cell-free
Plasma [24] = assay: Drug metabolism in mouse plasma assessed as loss of indole N-methyl group; type: ADME, cell-free
Insulin receptor = Insulin receptor (Homo sapiens, UniProt P06213); assay: Inhibition of INSR (unknown origin)
Insulin receptor, sequence (P06213 28-758 limits assumed): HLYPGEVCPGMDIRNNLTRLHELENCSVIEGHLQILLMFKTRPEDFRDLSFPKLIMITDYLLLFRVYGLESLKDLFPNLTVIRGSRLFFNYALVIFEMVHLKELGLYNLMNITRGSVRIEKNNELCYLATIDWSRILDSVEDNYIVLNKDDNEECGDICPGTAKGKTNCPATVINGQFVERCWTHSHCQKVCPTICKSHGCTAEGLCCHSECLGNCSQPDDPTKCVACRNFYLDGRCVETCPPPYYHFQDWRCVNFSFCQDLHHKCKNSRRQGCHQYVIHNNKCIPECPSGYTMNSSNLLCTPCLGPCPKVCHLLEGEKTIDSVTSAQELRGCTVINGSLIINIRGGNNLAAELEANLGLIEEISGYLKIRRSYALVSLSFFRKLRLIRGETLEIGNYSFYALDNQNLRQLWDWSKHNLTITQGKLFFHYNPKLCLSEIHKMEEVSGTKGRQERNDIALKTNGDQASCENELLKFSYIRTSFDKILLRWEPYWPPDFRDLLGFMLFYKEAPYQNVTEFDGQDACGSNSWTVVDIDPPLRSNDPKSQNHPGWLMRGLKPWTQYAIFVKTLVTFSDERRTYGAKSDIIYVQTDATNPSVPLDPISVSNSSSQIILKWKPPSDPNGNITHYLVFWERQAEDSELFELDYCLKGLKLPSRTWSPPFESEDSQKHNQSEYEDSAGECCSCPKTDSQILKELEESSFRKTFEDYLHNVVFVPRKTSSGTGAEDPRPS
Insulin receptor, sequence (P06213 763-1382 limits assumed): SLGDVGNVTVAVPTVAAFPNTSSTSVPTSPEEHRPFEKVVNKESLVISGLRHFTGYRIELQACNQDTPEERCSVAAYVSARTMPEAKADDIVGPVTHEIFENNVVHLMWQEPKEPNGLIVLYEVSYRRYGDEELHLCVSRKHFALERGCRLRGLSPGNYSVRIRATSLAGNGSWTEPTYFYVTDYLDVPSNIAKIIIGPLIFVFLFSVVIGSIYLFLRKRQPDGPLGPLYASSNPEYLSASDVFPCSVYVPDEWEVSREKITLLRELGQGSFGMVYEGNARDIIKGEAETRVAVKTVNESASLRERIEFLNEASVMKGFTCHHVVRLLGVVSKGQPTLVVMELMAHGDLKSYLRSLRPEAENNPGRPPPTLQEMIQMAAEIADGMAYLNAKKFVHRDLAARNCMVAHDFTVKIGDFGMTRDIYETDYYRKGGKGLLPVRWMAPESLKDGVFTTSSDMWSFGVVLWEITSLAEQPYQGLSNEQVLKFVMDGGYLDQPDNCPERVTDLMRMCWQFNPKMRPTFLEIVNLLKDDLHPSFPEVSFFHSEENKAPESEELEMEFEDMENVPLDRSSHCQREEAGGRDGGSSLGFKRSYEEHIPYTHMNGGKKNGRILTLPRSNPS

[25] = Cmax in mouse at 10 mg/kg, po; type: ADME, organism-based; design: dose 10 mg/kg, route oral; details: in vivo
[26] = Oral bioavailability in Han Wistar rat at 5 mg/kg; type: ADME, organism-based; details: in vivo
Plasma [27] = assay: Drug metabolism in mouse plasma assessed as dealkylation of compound; type: ADME, cell-free
Rattus norvegicus [28] = assay: Toxicity in rat assessed as hyperglycemia at 200 mg/kg, po as single dose measured over 24 hrs; type: organism-based; design: dose 200 mg/kg, route oral; details: in vivo
Plasma [29] = assay: Drug metabolism in rat plasma assessed as loss of indole N-methyl group; type: ADME, cell-free
[30] = Half life of the compound by GSH reduction assay; type: physicochemical; details: glutathione (GSH)
[31] = Antitumor activity against human PC9 cells harboring EGFR exon 19 deletion activating mutant xenografted in SCID mouse assessed as tumor growth inhibition at 10 mg/kg/day, po qd for 7 days relative to control; type: functional, PC-9
Rattus norvegicus [32] = assay: Toxicity in rat at 200 mg/kg, po as single dose measured over 24 hrs; type: organism-based; design: dose 200 mg/kg, route oral; details: in vivo
Cavia porcellus = assay: Cardiotoxicity in anesthetized guinea pig assessed as QT prolongation at fCmax concentration; type: toxicity, organism-based; details: in vivo
Rattus norvegicus [33] = assay: Clearance in iv dosed Han Wistar rat; type: ADME, organism-based; details: in vivo
Plasma [34] = assay: as §1; type: ADME, cell-free
[35] = Mus musculus, NCI-H1975, 168 h, read-out: TGI
[36] = Mus musculus, A-431, 168 h, read-out: TGI

CN(C)C/C=C/C(=O)Nc1cc2c(Nc3ccc(F)c(Cl)c3)ncnc2cc1O[C@H]1CCOC1 [AFATINIB]
inhibition in vivo at […] (A-431 [1]; A-431, 168 h, read-out: TGI): 84%
inhibition in vivo at 20 mg/kg/day (NCI-H1975 [2]): 74%
inhibition in vivo at 5 mg/kg/day (NCI-H1975 [3]; [35]): 23%
inhibition in vivo at 5 mg/kg/day (A-431 [4]; [36]): 84%
inhibition in vivo at 10 mg/kg/day (A-431 [5]; [36]): 131%
inhibition in vivo at 10 mg/kg/day (NCI-H1975 [6]; [35]): 25%
inhibition in vivo at […] (NCI-H1975 [7]; NCI-H1975, 168 h, read-out: TGI): 16%
inhibition in vivo at 20 mg/kg/day (A-431 [8]): 158%

C=CC(=O)Nc1cc(Nc2nccc(-c3cn(C)c4ccccc34)n2)c(OC)cc1N(C)CCNC
pIC50 [9]: < 4.48
Drug metabolism (Plasma [10]): metabolite_detected
pIC50 [11]: 5.80
GI50 ([12]; Homo sapiens, Calu-3, 72 h): 0.537 µM
GI50 ([13]; Homo sapiens, PC-9, 72 h): 0.015 µM
Drug metabolism (Plasma [14]): metabolite_detected
fraction unbound [15]: 0.023
hepatocyte CLint [16]: 50 µL/min/1e6 cells
logD [17]: 2.3
fraction unbound [18]: 0.0105
solubility thermodynamic [19]: 14 µM (≈ 6.8 µg/mL)
hepatocyte CLint [20]: < 3 µL/min/1e6 cells
GI50 (NCI-H1975 [21]; Homo sapiens, NCI-H1975, 72 h): 0.019 µM
fraction unbound [22]: 0.039

C=CC(=O)Nc1cc(Nc2nccc(-c3cn(C)c4ccccc34)n2)c(OC)cc1N(C)CCN(C)C [OSIMERTINIB]
Drug metabolism (Plasma [23]): metabolite_detected
Drug metabolism (Plasma [24]): metabolite_detected
pIC50 (Insulin receptor): 6.04
TGI (A-431 [1]): 65%
Cmax [25]: 380 nM
TGI (NCI-H1975 [3]): 134%
pIC50 [11]: 5.54
GI50 [12]: 0.264 µM
bioavailability [26]: 45%
GI50 [13]: 0.023 µM
Drug metabolism (Plasma [27]): metabolite_detected
fraction unbound [15]: 0.032
hepatocyte CLint [16]: 27 µL/min/1e6 cells
Activity (Rattus norvegicus [28]): Non-toxic
logD [17]: 3.4
fraction unbound [18]: 0.034
TGI (A-431 [4]): 79%
TGI (A-431 [5]): 102%
solubility thermodynamic [19]: 7 µM (≈ 3.5 µg/mL)
hepatocyte CLint [20]: 3.4 µL/min/1e6 cells
Drug metabolism (Plasma [29]): metabolite_detected
half-life [30]: 2.02 h
TGI [31]: 267%
TGI (NCI-H1975 [6]): 148%
TGI (NCI-H1975 [7]): 120%
Activity (Rattus norvegicus [32]): Non-toxic
Activity (Cavia porcellus): Non-toxic
clearance (Rattus norvegicus [33]): 45 mL/min/kg
Fu (Plasma [34]): 2.9%
